Data set [1] can be described thus: Excretion/mass balance of [14C] amdizalisib in BDI and BDC rats. In kind it is in vivo, SD rat. As to conditions: for Cumulative recovery of radioactivity, Bile / Cumulative recovery of radioactivity, Cage washing / Cumulative recovery of radioactivity, Feces / Cumulative recovery of radioactivity, Total recovery / Cumulative recovery of radioactivity, Urine: PO 5 mg/100 μCi/kg; for unchanged drug recovered in bile / unchanged drug recovered in feces / unchanged drug recovered in urine: % of administered dose. As to the method: Rats were divided into seven groups according to the sampling time points, with six rats (male: female = 1: 1) in each group, except that Group 1 h used three male rats and Group 2 h and Group 72 h used three female rats, respectively. […] Plasma and tissue samples were collected at 0.5, 1, 6, 24, and 48 h after dosing for male rats and at 0.5, 2, 6, 24, 48, and 72 h after dosing for female rats. […] After blood collection, the rats were sacrificed, and 18 tissues, namely, brain, breast, skin, fat, testis, ovary, bladder, pancreas, skeletal muscle, heart, lung, kidney, liver, stomach, small intestine, colon, spleen, and spinal cord, were removed from the rats at designated time points. These tissues were washed with saline and dried with filter paper. Aliquots of tissues were accurately weighed and then homogenized in 50% (v/v) methanol/water (10 mL/1 g tissue). […] Twelve rats (207–277 g) were divided into the bile-duct cannulation (BDC) group and the bile-duct intact (BDI) group, with six rats (male: female = 1:1) in each group. […] Urine and feces were collected at pre-dose (0) and 24 h through 168 h post-dose (the first 24 h interval split into 0–8 and 8–24 h for urine) for BDI rats. For BDC rats, urine and feces were collected at pre-dose (0) and 72 h post-dose (the first 24 h interval split into 0–8 and 8–24 h for urine), and bile was collected at pre-dose (0), 0–4, 4–8, 8–24, 24–48, and 48–72 h post-dose. Cage-washing fluids were collected at 24 h intervals until the last sampling time point for both groups. Another BDI rat was orally administered a blank vehicle (0.5% CMC-Na, 0.5 g/100 mL), and urine and feces were collected 24 h post-dose. The weight of the collected samples was recorded. Samples were stored in a −20°C freezer until analysis.
For the determination of drug-derived radioactivity in the excretion study in SD rats, urine (0.1 g), bile (0.025 g), and cage wash samples (1 g) were mixed well with scintillation solution (5 mL for urine and cage wash samples; 10 mL for bile samples) and directly analyzed by a liquid scintillation counter (LSC, Perkin Elmer, Waltham, MA, United States). An appropriate amount of isopropanol: water (1:1, v/v) was added to the feces samples and thoroughly homogenized. Pooled fecal homogenate (0.3 g) was combusted in a Sample Oxidizer 501 (RJ Harvey Instrument, Tappan, NY, USA), and the generated ^14CO2 was trapped in a 15 mL scintillation solution and further analyzed for radioactivity by LSC using a Tri-Carb 3110 TR counter (Perkin Elmer, Waltham, MA, United States). The radioactive concentrations of urine, bile, feces, and cage washings were calculated with the counted disintegration per minute (DPM). The percentage of administered dose recovered (% dose recovered) was calculated using the following equation: % dose recovered=Total radioactivity DPM in sample/ radioactivity DPM in dosing formulation×100.

The target of another data set is T1, MATE1 (Homo sapiens, UniProt Q96FL8).
T1 sequence (Q96FL8 1-570): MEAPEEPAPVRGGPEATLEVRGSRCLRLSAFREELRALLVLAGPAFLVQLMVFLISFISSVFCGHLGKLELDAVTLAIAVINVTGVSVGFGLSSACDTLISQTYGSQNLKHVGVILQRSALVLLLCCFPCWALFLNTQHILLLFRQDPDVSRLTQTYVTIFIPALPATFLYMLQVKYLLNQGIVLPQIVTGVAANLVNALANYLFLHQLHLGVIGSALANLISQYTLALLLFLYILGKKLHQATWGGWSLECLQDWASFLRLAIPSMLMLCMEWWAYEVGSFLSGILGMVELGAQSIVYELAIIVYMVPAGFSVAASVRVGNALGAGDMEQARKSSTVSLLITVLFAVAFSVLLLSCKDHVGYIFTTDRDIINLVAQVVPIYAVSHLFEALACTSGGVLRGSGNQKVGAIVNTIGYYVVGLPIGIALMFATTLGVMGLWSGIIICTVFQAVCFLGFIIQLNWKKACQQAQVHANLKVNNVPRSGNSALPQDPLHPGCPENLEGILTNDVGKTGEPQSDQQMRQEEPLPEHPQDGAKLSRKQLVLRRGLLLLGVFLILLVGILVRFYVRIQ
Put plainly: MATE1 inhibition, tetraethylammonium uptake in transfected HEK293 cells. As to the method:
(§1) The pre-incubation solutions were removed, and incubation solutions containing the inhibitors and probe substrates (or transport buffer containing an equal volume of vehicle control and probe substrates) were added and incubated at 37°C for 2 min (5 min for OATP1B3). The probe substrate for OAT1 was 4-aminohippuric acid (10 μM), for OAT3 was estrone 3-sulfate (10 μM), for OCT2 was metformin (100 μM), for OATP1B1 was β-estradiol 17-(β-D-glucuronide) (5 μM), for OATP1B3 was β-estradiol 17-(β-D-glucuronide) (10 μM), and for MATE1 and MATE2-K was tetraethylammonium (10 μM). After incubation, cells were washed three times with ice-cold transport buffer (25 mM HEPES, pH 7.4, pH 8.0 for overexpressing MATE1 and MATE2-K HEK293 cells) and lysed in distilled water. The concentrations of probe substrates were determined by LC-MS/MS, and a BCA Kit (Solarbio ®Life Sciences, Beijing, China) was used to determine the protein content in the cell lysate.
(§2) where C is the concentration of the drug in the cell lysate (nM), P is the protein concentration of the cell lysate (mg/mL), and T is the incubation time (minute). Uptake ratetest compound is the uptake rate of the substrate in the presence of the test compound. Uptake ratevehicle control is the uptake rate of the substrate in the presence of the vehicle control. Uptake ratepassive is the uptake rate of the substrate in the presence of the positive inhibitor at the top test concentration.

The target of another data set is MATE2-K (Homo sapiens, UniProt Q86VL8). The data set is described as follows: MATE2-K inhibition, tetraethylammonium uptake in transfected HEK293 cells. As to the method:
as §1, §2

The target of a further data set is T2, OAT3 (Homo sapiens, UniProt Q8TCC7).
T2 sequence (Q8TCC7 1-542): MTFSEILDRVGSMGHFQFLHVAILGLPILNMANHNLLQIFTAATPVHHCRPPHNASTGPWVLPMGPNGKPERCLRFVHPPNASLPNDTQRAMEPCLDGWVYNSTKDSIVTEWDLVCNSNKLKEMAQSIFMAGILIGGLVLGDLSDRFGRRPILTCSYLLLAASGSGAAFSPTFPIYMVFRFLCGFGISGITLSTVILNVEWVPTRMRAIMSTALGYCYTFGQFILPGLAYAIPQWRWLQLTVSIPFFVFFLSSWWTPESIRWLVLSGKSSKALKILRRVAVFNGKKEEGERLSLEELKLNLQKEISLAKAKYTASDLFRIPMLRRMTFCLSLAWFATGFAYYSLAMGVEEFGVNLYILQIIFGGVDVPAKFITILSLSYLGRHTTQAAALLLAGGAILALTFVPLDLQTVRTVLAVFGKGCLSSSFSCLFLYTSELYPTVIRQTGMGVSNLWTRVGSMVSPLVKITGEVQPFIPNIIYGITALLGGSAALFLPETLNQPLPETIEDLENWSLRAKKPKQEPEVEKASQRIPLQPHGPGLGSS
The data set is described as follows: OAT3 inhibition, estrone 3-sulfate uptake in transfected HEK293 cells. As to the method:
as §1, §2

Where [2] appears, read: BDC rat, 0–72 h, female (n = 3).
Where [3] appears, read: BDC rat, 0–72 h, male and female (n = 6).
Where [4] appears, read: BDI rat, 0–168 h, female (n = 3).
Where [5] appears, read: BDI rat, 0–168 h, male and female (n = 6).

Values joined by “and” are separate entries in the source; they are usually repeats but may differ in a detail not shown here. Equal values may be shown once.

Chain of MATE2-K (Q86VL8 1-566 isoform Q86VL8-3): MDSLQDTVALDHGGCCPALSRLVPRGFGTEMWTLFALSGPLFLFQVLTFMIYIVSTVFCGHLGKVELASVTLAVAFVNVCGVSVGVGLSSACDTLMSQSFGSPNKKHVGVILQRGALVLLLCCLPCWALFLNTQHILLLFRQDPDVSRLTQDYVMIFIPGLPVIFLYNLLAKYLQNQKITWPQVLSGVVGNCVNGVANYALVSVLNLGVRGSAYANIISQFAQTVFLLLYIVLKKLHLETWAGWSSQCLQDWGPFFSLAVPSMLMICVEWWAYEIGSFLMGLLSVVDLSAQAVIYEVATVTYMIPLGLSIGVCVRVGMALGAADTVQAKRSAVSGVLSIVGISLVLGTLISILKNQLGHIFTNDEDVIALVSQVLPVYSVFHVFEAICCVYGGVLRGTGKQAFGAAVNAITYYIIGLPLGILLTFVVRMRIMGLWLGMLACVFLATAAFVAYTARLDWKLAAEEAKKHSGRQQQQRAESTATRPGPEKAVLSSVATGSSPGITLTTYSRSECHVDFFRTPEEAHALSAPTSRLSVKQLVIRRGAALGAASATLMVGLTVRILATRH

Take [^14C] amdizalisib: in data set [1] (setting [2]), the “Cumulative recovery of radioactivity, Bile” value (from here on “Cumulative recovery … Bile”) is 49.81 ± 2.07%; the “Cumulative recovery of radioactivity, Cage washing” value (shortened to “Cumulative recovery … Cage washing”) was found to be 2.24 ± 1.90%; the “Cumulative recovery of radioactivity, Feces” value (“Cumulative recovery … Feces” for short) was found to be 19.81 ± 4.98%; the “Cumulative recovery of radioactivity, Total recovery” value (“Cumulative recovery … Total recovery” for short) was found to be 90.31 ± 0.91%. Also, the “Cumulative recovery of radioactivity, Urine” value (from here on “Cumulative recovery … Urine”) in data set [1] (setting [2]) turned out to be 18.45 ± 4.01%. In addition, in data set [1] (BDC rat, 0–72 h, male (n = 3)), the “Cumulative recovery … Bile” value stood at 58.17 ± 4.68%; the “Cumulative recovery … Cage washing” value is 0.89 ± 0.37%; the “Cumulative recovery … Feces” value is listed as 8.98 ± 2.64%; the “Cumulative recovery … Total recovery” value amounted to 91.99 ± 1.88%. Besides, the “Cumulative recovery … Urine” value in data set [1] (BDC rat, 0–72 h, male (n = 3)) is reported as 23.96 ± 8.70%. Also, in data set [1] (setting [3]), the “Cumulative recovery … Bile” value stood at 53.99 ± 5.61%; the “Cumulative recovery … Cage washing” value turned out to be 1.57 ± 1.43%; the “Cumulative recovery … Feces” value is given as 14.40 ± 6.92%; the “Cumulative recovery … Total recovery” value was 91.15% and 91.15 ± 1.61%. For the same compound, in data set [1] (setting [3]), the “Cumulative recovery … Urine” value is 21.20 ± 6.77%. Besides, in data set [1] (BDC rats, 0–72 h, PO 5 mg/kg), the “fraction of the oral dose absorbed (bile + urine radioactivity)” value is “at least 75.19%”. Besides, in data set [1] (setting [4]), the “Cumulative recovery … Cage washing” value was determined as 4.72 ± 2.41%; the “Cumulative recovery … Feces” value is 71.15 ± 0.22%; the “Cumulative recovery … Total recovery” value came to 91.59 ± 0.97%; the “Cumulative recovery … Urine” value was 15.72 ± 2.62%. In data set [1] (BDI rat, 0–168 h, male (n = 3)), the “Cumulative recovery … Cage washing” value came to 2.84 ± 0.17%; the “Cumulative recovery … Feces” value is 63.14 ± 3.98%; the “Cumulative recovery … Total recovery” value is on record as 90.69 ± 1.16%; the “Cumulative recovery … Urine” value is 24.71 ± 4.46%. Besides, in data set [1] (setting [5]), the “Cumulative recovery … Cage washing” value came out at 3.78 ± 1.84%; the “Cumulative recovery … Feces” value was 67.15 ± 5.06%; the “Cumulative recovery … Total recovery” value is 91.14% and 91.14 ± 1.07%; the “Cumulative recovery … Urine” value is 20.21 ± 5.91%. Moreover, in data set [1] (BDI rats, within 48 h post-dose), the total radioactivity recovered result is “over 80%”. Besides, in data set [1] (female rats), the “unchanged drug recovered in bile” value came to 4.70%, the “unchanged drug recovered in feces” value is given as 29.80% and the “unchanged drug recovered in urine” value was found to be 0.03%. Further, in data set [1] (male rats), the “unchanged drug recovered in bile” value amounted to 2.69%, the “unchanged drug recovered in feces” value is 23.20% and the “unchanged drug recovered in urine” value is recorded as less than 0.01%.
The term IC50 denotes the point on the concentration scale where inhibition reaches its midpoint. Broadly, the inhibition is the change of the read-out against control, counted positive when it falls. A lower inhibition goes with a response near the control. In the case of `CCc1nc(N)nc(N)c1-c1ccc(Cl)cc1` [Pyrimethamine, reference compound], the figures for the half-maximal inhibitory concentration (IC50) against MATE1 and against MATE2-K were 12.5 nM and 13.6 nM, respectively. For the same compound, the Percentage transported at MATE1 (MATE1, compound 1 μM) was 0.00%; on MATE2-K (MATE2-K, compound 1 μM), 0.00%. Also, the Uptake rate was 12.5±2.43 pmol/mg protein/min at MATE1 (MATE1, compound 1 μM) and 7.55±1.58 pmol/mg protein/min at MATE2-K (MATE2-K, compound 1 μM). Also, the inhibition at 2 min, 1 µM against MATE1 (human, pH 8) was 100%; against MATE2-K (human, pH 8) it was 100%.
Regarding `CCCN(CCC)S(=O)(=O)c1ccc(C(=O)O)cc1` [Probenecid, reference compound], on OAT3 (OAT3, compound 100 μM), the Percentage transported is given as 0.00% and the Uptake rate worked out at 19.5±2.26 pmol/mg protein/min. Moreover, the inhibition at 2 min, 100 µM against OAT3 (human, pH 7.4) was 100%.
